Read-outs that look alike come from different tables or passages of the source.
Tests used:
[1] = Tablet characterisation (hardness, friability, disintegration, HPLC recovery); format: physicochemical; conditions: prototype tablets disintegrated in water
Description: Dilution Approach: DAPA-2-5 liquid were loaded onto excipients (batch size: 12-24 g) in ˜12 experiments. The API and the selected excipients were mixed geometrically using a stainless steel spatula, and the mixture passed through sieve #20. The sieved blend was lubricated using magnesium stearate (previously sieved through mesh #40), and evaluated for appearance and flow property (through funnel). Based on the flow nature, selected blends were compressed in to tablets using Ø7.2 mm (for 120 mg tablets) or Ø9.5 mm (for higher than 120 mg tablet) standard concave round tooling on an Acura rotary press. Tablets were evaluated for thickness, hardness, friability, and disintegration test in 10 mL of purified water at room temperature. The appearance of powder blends and tablets were photographed.
The formed tablet was evaluated by several parameters. The dissolution rate is the time for the tablet to dissolve in a fixed volume of water [e.g. 10 mL] and, in the case of the ODT, the disintegration time should be less than 30 sec. Tablet hardness measures the structural integrity of a tablet “under conditions of storage, transportation, and handling before usage”. […]
A high pressure liquid chromatography [HPLC] method was developed for analysis of DAPA-2-5 in aqueous solution. […] Prototype tablets containing DAPA-2-5 were disintegrated and the content of DAPA-2-5 measured. […]

[2] = tested on: human circular smooth muscle; assay: Spontaneous contractions of human colon circular smooth muscle strips in organ bath; conditions: for IC50: read-out: median inhibitory concentration (IC50)
Description: In this present study, Dapa was examined by Amato in her test system. […] As shown in the FIG. 3, DAPA-2-5, prepared as a solution dissolved in distilled water, produced a dose-dependent reduction of the amplitude of human colon smooth muscle contractions when it was added to the organic bath.
The experimental procedures were approved by the Ethics Committee, University of Palermo, Italy. Human distal colon samples were obtained after informed consent from patients without LGIT disorders. The specimens were immediately placed in preoxygenated Krebs solution and stored overnight at 4° C. Circular muscular strips (4 mm wide by 10 mm long) were cut and suspended in a four-channel organ bath and connected to an isometric force transducer (FORT 25, Ugo Basile, Biological Research Apparatus, Comerio, Va., Italy). The organ bath contained 8 mL of oxygenated Krebs solution at 37° C. Mechanical activity was analyzed using the PowerLab/400 system (Ugo Basile). A tension of 1 g was applied, and strips allowed to equilibrate until spontaneous phasic contractions were recorded. Dapa compounds were added at step concentrations of 1 to 300 μM to the organ bath, with washing in between, and the contractions recorded after 4 min when the drug effect stabilizes. The TRPM8 antagonist, 5-BT (10^−5 M), was added at least 15 min before Dapa.

For CCCCCP(=O)(C(C)CC)C(C)CC (stereo not shown) [DAPA-2-5, 1-Di(sec-butyl) phosphinoyl-pentane], the “DAPA-2-5 recovered from the aqueous phase” value [1] was 86±2%, the IC50 ([2]; amplitude of spontaneous contractions, human distal colon circular muscle) was 34 µM and the “effect of TRPM8 antagonist on the inhibition of contractions” value ([2]; pretreatment with 5-BT (10^−5 M)) was “inhibited by pretreatment with 5-BT”. For the same compound, the IC50 ([2]; spontaneous contractions, human circular smooth muscle in vitro) was 8 µg/mL.

From patent US9956232B2, “Dialkyl-phosphinoyl-alkane (Dapa) compounds and compositions for treatment of lower gastrointestinal tract disorders” (priority 2016, dated 2018)
